# Experimental data published in BindingDB's records for doi:10.1016/0960-894X(95)00044-T (1995).
# Biological target: DNA
# Test: Inhibition of calf thymus DNA/ethidium bromide complex formation.
row,EC50 [µM],Structure (SMILES)
1,> 50,"Cc1cc(-c2c(F)cc3c4nn([C@H]5CC[C@@H](N)CC5)c(=O)c-4cn(C4CC4)c3c2F)cc(C)n1 [2-(4-Amino-cyclohexyl)-5-cyclopropyl-7-(2,6-dimethyl-pyridin-4-yl)-6,8-difluoro-2,5-dihydro-pyrazolo[4,3-c]quinolin-3-one]"
2,> 50,"Cc1cc(-c2c(F)cc3c4nn([C@H]5CC[C@H](N)CC5)c(=O)c-4cn(C4CC4)c3c2F)cc(C)n1 [2-(4-Amino-cyclohexyl)-5-cyclopropyl-7-(2,6-dimethyl-pyridin-4-yl)-6,8-difluoro-2,5-dihydro-pyrazolo[4,3-c]quinolin-3-one]"
3,> 50,"Cc1cc(-c2c(F)cc3c4nn(C5CCCCC5)c(=O)c-4cn(C4CC4)c3c2F)cc(C)n1 [2-Cyclohexyl-5-cyclopropyl-7-(2,6-dimethyl-pyridin-4-yl)-6,8-difluoro-2,5-dihydro-pyrazolo[4,3-c]quinolin-3-one]"
4,> 50,"Cc1cc(-c2c(F)cc3c4nn([C@H]5CC[C@@H](N(C)C)CC5)c(=O)c-4cn(C4CC4)c3c2F)cc(C)n1 [5-Cyclopropyl-2-(4-dimethylamino-cyclohexyl)-7-(2,6-dimethyl-pyridin-4-yl)-6,8-difluoro-2,5-dihydro-pyrazolo[4,3-c]quinolin-3-one]"
5,> 50,"Cc1cc(-c2c(F)cc3c4nn([C@H]5CC[C@H](N(C)C)CC5)c(=O)c-4cn(C4CC4)c3c2F)cc(C)n1 [5-Cyclopropyl-2-(4-dimethylamino-cyclohexyl)-7-(2,6-dimethyl-pyridin-4-yl)-6,8-difluoro-2,5-dihydro-pyrazolo[4,3-c]quinolin-3-one]"
6,> 50,"Cc1cc(-c2c(F)cc3c4nn(C5CCN(C)CC5)c(=O)c-4cn(C4CC4)c3c2F)cc(C)n1 [5-Cyclopropyl-7-(2,6-dimethyl-pyridin-4-yl)-6,8-difluoro-2-(1-methyl-piperidin-4-yl)-2,5-dihydro-pyrazolo[4,3-c]quinolin-3-one]"
7,> 50,"Cc1cc(-c2c(F)cc3c4nn(C5CCC(C)CC5)c(=O)c-4cn(C4CC4)c3c2F)cc(C)n1 (stereo unspecified) [5-Cyclopropyl-7-(2,6-dimethyl-pyridin-4-yl)-6,8-difluoro-2-(4-methyl-cyclohexyl)-2,5-dihydro-pyrazolo[4,3-c]quinolin-3-one]"
8,> 50,"Cc1cc(-c2c(F)cc3c4nn(C5CCOCC5)c(=O)c-4cn(C4CC4)c3c2F)cc(C)n1 [5-Cyclopropyl-7-(2,6-dimethyl-pyridin-4-yl)-6,8-difluoro-2-(tetrahydro-pyran-4-yl)-2,5-dihydro-pyrazolo[4,3-c]quinolin-3-one]"
9,> 60,"Cc1cc(-c2c(F)cc3c4nn(C)c(=O)c-4cn(C4CC4)c3c2F)cc(C)n1 [5-Cyclopropyl-7-(2,6-dimethyl-pyridin-4-yl)-6,8-difluoro-2-methyl-2,5-dihydro-pyrazolo[4,3-c]quinolin-3-one]"
10,> 52,"CC(=O)N[C@H]1CC[C@@H](n2nc3c4cc(F)c(-c5cc(C)nc(C)c5)c(F)c4n(C4CC4)cc-3c2=O)CC1 [N-{4-[5-Cyclopropyl-7-(2,6-dimethyl-pyridin-4-yl)-6,8-difluoro-3-oxo-3,5-dihydro-pyrazolo[4,3-c]quinolin-2-yl]-cyclohexyl}-acetamide]"
11,> 51,"CC(=O)N[C@H]1CC[C@H](n2nc3c4cc(F)c(-c5cc(C)nc(C)c5)c(F)c4n(C4CC4)cc-3c2=O)CC1 [N-{4-[5-Cyclopropyl-7-(2,6-dimethyl-pyridin-4-yl)-6,8-difluoro-3-oxo-3,5-dihydro-pyrazolo[4,3-c]quinolin-2-yl]-cyclohexyl}-acetamide]"

# Continued, compound first:
row,Structure (SMILES),EC50 [µM]
1,"Cc1cc(-c2c(F)cc3c(=O)ccn(C4CC4)c3c2F)cc(C)n1 [1-Cyclopropyl-7-(2,6-dimethyl-pyridin-4-yl)-6,8-difluoro-1H-quinolin-4-one]",> 55
2,"Cc1cc(-c2c(F)cc3c4nn(CCN(C)C)c(=O)c-4cn(C4CC4)c3c2F)cc(C)n1 [5-Cyclopropyl-2-(2-dimethylamino-ethyl)-7-(2,6-dimethyl-pyridin-4-yl)-6,8-difluoro-2,5-dihydro-pyrazolo[4,3-c]quinolin-3-one]",0.93
3,"Cc1cc(-c2c(F)cc3c4nn(CCCN(C)C)c(=O)c-4cn(C4CC4)c3c2F)cc(C)n1 [5-Cyclopropyl-2-(3-dimethylamino-propyl)-7-(2,6-dimethyl-pyridin-4-yl)-6,8-difluoro-2,5-dihydro-pyrazolo[4,3-c]quinolin-3-one]",> 50
4,"Cc1cc(-c2c(F)cc3c4n[nH]c(=O)c-4cn(C4CC4)c3c2F)cc(C)n1 [5-Cyclopropyl-7-(2,6-dimethyl-pyridin-4-yl)-6,8-difluoro-2,5-dihydro-pyrazolo[4,3-c]quinolin-3-one]",27
5,"Cc1cc(-c2c(F)cc3c4nn(CCO)c(=O)c-4cn(C4CC4)c3c2F)cc(C)n1 [5-Cyclopropyl-7-(2,6-dimethyl-pyridin-4-yl)-6,8-difluoro-2-(2-hydroxy-ethyl)-2,5-dihydro-pyrazolo[4,3-c]quinolin-3-one]",> 60
6,"Cc1cc(-c2c(F)cc3c4nn(CCNCCO)c(=O)c-4cn(C4CC4)c3c2F)cc(C)n1 [5-Cyclopropyl-7-(2,6-dimethyl-pyridin-4-yl)-6,8-difluoro-2-[2-(2-hydroxy-ethylamino)-ethyl]-2,5-dihydro-pyrazolo[4,3-c]quinolin-3-one]",1.2
7,"Cc1cc(-c2c(F)cc3c4nn(-c5ccccc5)c(=O)c-4cn(C4CC4)c3c2F)cc(C)n1 [5-Cyclopropyl-7-(2,6-dimethyl-pyridin-4-yl)-6,8-difluoro-2-phenyl-2,5-dihydro-pyrazolo[4,3-c]quinolin-3-one]",> 60
8,Cc1cc(-c2c(F)cc3c(=O)c(C(=O)O)cn(C4CC4)c3c2F)cc(C)n1 [WIN-57294],> 54
9,"CCOC(=O)Cn1nc2c3cc(F)c(-c4cc(C)nc(C)c4)c(F)c3n(C3CC3)cc-2c1=O [[5-Cyclopropyl-7-(2,6-dimethyl-pyridin-4-yl)-6,8-difluoro-3-oxo-3,5-dihydro-pyrazolo[4,3-c]quinolin-2-yl]-acetic acid ethyl ester]",> 60
10,"Cc1cc(-c2c(F)cc3c4nn(CC(=O)O)c(=O)c-4cn(C4CC4)c3c2F)cc(C)n1 [[5-Cyclopropyl-7-(2,6-dimethyl-pyridin-4-yl)-6,8-difluoro-3-oxo-3,5-dihydro-pyrazolo[4,3-c]quinolin-2-yl]-acetic acid]",> 60
